Data as given in patent US20100330677A1, “Improved Reprogramming of Mammalian Cells, and Cells Obtained” (Cambridge Enterprise Limited, priority 2008, published 2010).

Assays:
pre-iPS cells = assay: Adding inhibitors to pre-iPS cells in the presence of foetal calf serum plus LIF; format: cell-based, mouse; settings: for effect on Oct4-GFP activation: foetal calf serum plus LIF, inhibitor alone
From the text: We also examined the effect of adding inhibitors in the presence of foetal calf serum plus LIF. The addition of 2i induced stable activation of Oct4-GFP in around 10% of emerging colonies. […] The reduced frequency compared with serum-free 2i culture may be because the ability of PD0325901 to suppress Erk activation is counteracted by serum factors.

[1] = test system: Oct4-GFP expressing I-iPS cells; assay: Oct4-GFP reporter activity of partially reprogrammed cells cultured in Fgf2 and activin, with activin receptor inhibitor; format: cell-based, mouse; settings: serum free
From the text: Culture of FACS purified GFP expressing incomplete (I) iPS cells in Fgf2 and activin (left) and subsequently on addition of activin receptor inhibitor SB431542 (right). To further investigate the phenotype of these partially reprogrammed cells we assessed Oct4 reporter activity in different culture environments. In conventional ES cell culture using the self renewal cytokine Leukaemia Inhibitory Factor (LIF) and serum in presence or absence of feeders, Oct4-GFP expression was not maintained. In contrast, reporter expression stabilized when cells were cultured serum free in the presence of Fgf2 and activin (FIG. 2). These are conditions used for the propagation of EpiSCs derived from post-implantation embryos (Brons et al., 2007; Tesar et al., 2007). […] We conclude that NS cells are efficiently converted by the reprogramming factors into a heterogeneous cell population with certain properties of EpiSCs rather than ES cells.

| SMILES | effect on Oct4-GFP activation (pre-iPS cells) | expression of Nanog and Rex1 (pre-iPS cells; cells expanded in serum and LIF) | effect of inhibitor on Oct4-GFP reporter activity and cells [1] |
| --- | --- | --- | --- |
| Cc1c[nH]c(-c2cnc(NCCNc3ccc(C#N)cn3)nc2-c2ccc(Cl)cc2Cl)n1 [GSK3 inhibitor, CHIR99021] | no discernible effect | – | – |
| O=C(NOC[C@H](O)CO)c1ccc(F)c(F)c1Nc1ccc(I)cc1F [MEK inhibitor, PD0325901] | comparable to 2i | acquired expression of Nanog and Rex1 | – |
| NC(=O)c1ccc(-c2nc(-c3ccc4c(c3)OCO4)c(-c3ccccn3)[nH]2)cc1 [SB43154212, SB431542] | – | – | loss of reporter activity, cell death and differentiation |
